Source: the NIST ThermoML archive (doi:10.1016/j.jct.2008.01.006)
Numbers after ± are expanded uncertainties.

Conditions: Liquid, Vibrating tube method

CCCCCCCN [1-heptanamine]
mass density [kg/m3]
Conditions	293.15 K	303.15 K	313.15 K	323.15 K	333.15 K	343.15 K	353.15 K
100 kPa	774.9 ± 0.4	766.5 ± 0.4	758.2 ± 0.4	749.8 ± 0.4	741.4 ± 0.4	732.6 ± 0.5	724.4 ± 0.5
10000 kPa	781.1 ± 0.5	773.6 ± 0.5	765.4 ± 0.5	757.6 ± 0.5	749.5 ± 0.5	741.7 ± 0.5	733.7 ± 0.6
20000 kPa	787.1 ± 0.5	780 ± 0.6	772 ± 0.6	764.5 ± 0.6	756.8 ± 0.6	749.6 ± 0.6	741.9 ± 0.6
30000 kPa	792.6 ± 0.6	785.8 ± 0.6	778.2 ± 0.7	771 ± 0.7	763.4 ± 0.7	756.7 ± 0.7	749.3 ± 0.7
40000 kPa	797.8 ± 0.7	791.3 ± 0.7	784 ± 0.7	777 ± 0.8	769.6 ± 0.8	763.3 ± 0.8	756.2 ± 0.8
50000 kPa	802.7 ± 0.8	796.5 ± 0.8	789.3 ± 0.8	782.6 ± 0.9	775.5 ± 0.9	769.4 ± 0.9	762.6 ± 0.9
60000 kPa	807.4 ± 0.9	801.3 ± 0.9	794.5 ± 0.9	787.8 ± 0.9	780.9 ± 1	775.1 ± 1	768.7 ± 1
70000 kPa	811.8 ± 0.9	806 ± 1	799.2 ± 1	792.7 ± 1	786.2 ± 1	780.4 ± 1.1	774.2 ± 1.1
80000 kPa	816.1 ± 1	810.4 ± 1	803.7 ± 1.1	797.5 ± 1.1	791.1 ± 1.1	785.5 ± 1.2	779.5 ± 1.2
90000 kPa	820.2 ± 1.1	814.6 ± 1.1	808 ± 1.2	802 ± 1.2	795.6 ± 1.2	790.3 ± 1.2	784.3 ± 1.3
100000 kPa	824 ± 1.2	818.7 ± 1.2	812.2 ± 1.2	806.3 ± 1.3	800 ± 1.3	794.9 ± 1.3	789.2 ± 1.3
110000 kPa	827.8 ± 1.2	822.5 ± 1.3	816.2 ± 1.3	810.6 ± 1.3	804.3 ± 1.4	799.2 ± 1.4	793.7 ± 1.4
120000 kPa	831.5 ± 1.3	826.2 ± 1.3	820.1 ± 1.4	814.5 ± 1.4	808.4 ± 1.4	803.3 ± 1.5	797.9 ± 1.5
130000 kPa	835 ± 1.3	829.9 ± 1.4	823.8 ± 1.4	818.4 ± 1.5	812.4 ± 1.5	807.4 ± 1.5	802.1 ± 1.6
140000 kPa	838.3 ± 1.4	833.3 ± 1.4	827.4 ± 1.5	822.1 ± 1.5	816.2 ± 1.6	811.3 ± 1.6	806.1 ± 1.6

CCCCCCN [1-hexanamine]
mass density [kg/m3]
Conditions	293.15 K	303.15 K	313.15 K	323.15 K	333.15 K	343.15 K	353.15 K
100 kPa	765.1 ± 0.3	756.2 ± 0.4	748.2 ± 0.4	738.9 ± 0.4	730.2 ± 0.4	721.3 ± 0.4	712.4 ± 0.5
10000 kPa	771.5 ± 0.4	763.5 ± 0.4	755.4 ± 0.4	746.9 ± 0.5	738.7 ± 0.5	730.6 ± 0.5	722.3 ± 0.5
20000 kPa	777.6 ± 0.5	770.2 ± 0.5	762.3 ± 0.5	754.2 ± 0.5	746.3 ± 0.5	738.8 ± 0.6	731.1 ± 0.6
30000 kPa	783.4 ± 0.6	776.3 ± 0.6	768.6 ± 0.6	761 ± 0.6	753.4 ± 0.6	746.4 ± 0.6	739 ± 0.7
40000 kPa	788.8 ± 0.6	781.9 ± 0.7	774.6 ± 0.7	767.2 ± 0.7	759.9 ± 0.7	753.2 ± 0.7	746 ± 0.8
50000 kPa	793.8 ± 0.7	787.2 ± 0.7	780.2 ± 0.8	772.9 ± 0.8	765.9 ± 0.8	759.6 ± 0.8	752.5 ± 0.9
60000 kPa	798.8 ± 0.8	792.2 ± 0.8	785.3 ± 0.8	778.4 ± 0.9	771.6 ± 0.9	765.6 ± 0.9	759 ± 0.9
70000 kPa	803.3 ± 0.9	796.9 ± 0.9	790.3 ± 0.9	783.5 ± 1	776.9 ± 1	771 ± 1	764.6 ± 1
80000 kPa	807.7 ± 1	801.5 ± 1	794.9 ± 1	788.4 ± 1	781.9 ± 1.1	776.2 ± 1.1	770 ± 1.1
90000 kPa	811.9 ± 1	805.8 ± 1.1	799.4 ± 1.1	792.9 ± 1.1	786.7 ± 1.2	781.1 ± 1.2	775.1 ± 1.2
100000 kPa	815.9 ± 1.1	810 ± 1.1	803.7 ± 1.2	797.3 ± 1.2	791.2 ± 1.2	785.9 ± 1.3	780 ± 1.3
110000 kPa	819.8 ± 1.2	814 ± 1.2	807.8 ± 1.2	801.7 ± 1.3	795.7 ± 1.3	790.3 ± 1.3	784.6 ± 1.4
120000 kPa	823.5 ± 1.2	817.9 ± 1.3	811.7 ± 1.3	805.8 ± 1.3	799.9 ± 1.4	794.6 ± 1.4	789.1 ± 1.5
130000 kPa	827.1 ± 1.3	821.6 ± 1.3	815.5 ± 1.4	809.7 ± 1.4	803.8 ± 1.5	798.8 ± 1.5	793.2 ± 1.5
140000 kPa	830.5 ± 1.4	825.1 ± 1.4	819.1 ± 1.4	813.5 ± 1.5	807.6 ± 1.5	802.7 ± 1.6	797.3 ± 1.6

CCCCCN [1-pentanamine]
mass density [kg/m3]
Conditions	293.15 K	303.15 K	313.15 K	323.15 K	333.15 K	343.15 K	353.15 K
100 kPa	754.1 ± 0.4	744.7 ± 0.4	735.6 ± 0.4	726.4 ± 0.4	716.9 ± 0.4	707.5 ± 0.5	698 ± 0.5
10000 kPa	760.9 ± 0.4	752.6 ± 0.5	743.8 ± 0.5	735.1 ± 0.5	726.1 ± 0.5	717.8 ± 0.5	708.7 ± 0.6
20000 kPa	767.4 ± 0.5	759.6 ± 0.5	751.1 ± 0.5	742.8 ± 0.6	734.3 ± 0.6	726.5 ± 0.6	718 ± 0.6
30000 kPa	773.4 ± 0.6	765.9 ± 0.6	757.9 ± 0.6	749.8 ± 0.6	741.7 ± 0.7	734.4 ± 0.7	726.3 ± 0.7
40000 kPa	778.9 ± 0.7	772 ± 0.7	764.1 ± 0.7	756.3 ± 0.7	748.5 ± 0.8	741.6 ± 0.8	733.9 ± 0.8
50000 kPa	784.2 ± 0.8	777.4 ± 0.8	769.8 ± 0.8	762.3 ± 0.8	754.8 ± 0.9	748.2 ± 0.9	740.8 ± 0.9
60000 kPa	789.3 ± 0.8	782.7 ± 0.9	775.2 ± 0.9	768 ± 0.9	760.7 ± 0.9	754.3 ± 1	747.4 ± 1
70000 kPa	794 ± 0.9	787.4 ± 1	780.3 ± 1	773.2 ± 1	766.3 ± 1	760 ± 1.1	753.3 ± 1.1
80000 kPa	798.5 ± 1	792.1 ± 1	785.1 ± 1.1	778.2 ± 1.1	771.5 ± 1.1	765.4 ± 1.2	759.1 ± 1.2
90000 kPa	802.8 ± 1.1	796.5 ± 1.1	789.7 ± 1.1	783 ± 1.2	776.5 ± 1.2	770.6 ± 1.2	764.2 ± 1.3
100000 kPa	806.9 ± 1.2	800.8 ± 1.2	794.1 ± 1.2	787.6 ± 1.3	781.1 ± 1.3	775.4 ± 1.3	769.3 ± 1.4
110000 kPa	810.8 ± 1.2	805 ± 1.3	798.4 ± 1.3	792.1 ± 1.3	785.6 ± 1.4	780.1 ± 1.4	774.1 ± 1.4
120000 kPa	814.7 ± 1.3	808.8 ± 1.3	802.4 ± 1.4	796.2 ± 1.4	790 ± 1.5	784.4 ± 1.5	778.6 ± 1.5
130000 kPa	818.4 ± 1.4	812.5 ± 1.4	806.4 ± 1.4	800.3 ± 1.5	794.2 ± 1.5	788.7 ± 1.6	782.9 ± 1.6
140000 kPa	822 ± 1.4	816.1 ± 1.5	810.1 ± 1.5	804.2 ± 1.6	798 ± 1.6	792.8 ± 1.6	787.2 ± 1.7
